Values of other authors in US20130089529A1, “AGENT FOR OSTEOGENESIS USING SUBSTANCE-P AND PREPARATION PROCESS THEREOF” (UNIVERSITY-INDUSTRY COOPERATION GROUP OF KYUNGHEE UNIVERSITY, priority 2010, published 2013).

Columns and labels:
CD29+ MSCs = settings: mice without wound, intravenous injection of Substance-P, versus non-injected mice; previous study KR 10-2006-0037176
MSCs = settings: in vitro 3-D collagen gel; by inducing matrix-degrading enzymes and inhibiting their inhibitors; previous study KR 10-2006-0037176

For Substance-P, the “CD29+ MSCs mobilized into peripheral blood, relative to non-injected mice” value (CD29+ MSCs) is given as “approximately 15 times” and the “Migration of MSCs in 3-D collagen gel” value (MSCs) is given as “stimulated migration of MSCs”.
